Reference: PMC11259170, “Small-molecule probe for IBD risk variant GPR65 I231L alters cytokine signaling networks through positive allosteric modulation” (Science Advances, 2024)
Like-named read-outs stand apart in the source and are kept apart here.

Experiments:
mGPR65 = target: T1, mGPR65 (Mus musculus, UniProt Q61038); experiment: cAMP detection in HeLa expression cell line, mGPR65; format: cell-based; conditions: for Emax: HeLa, relative to 100uM forskolin (100%) and DMSO (0%), read-out: mGPR Max Activity %
T1 construct: expressed in transfected cells; host or cells: HeLa (ATCC CCL-2), lentiviral transduction, pLX317
T1 sequence (Q61038 whole entry): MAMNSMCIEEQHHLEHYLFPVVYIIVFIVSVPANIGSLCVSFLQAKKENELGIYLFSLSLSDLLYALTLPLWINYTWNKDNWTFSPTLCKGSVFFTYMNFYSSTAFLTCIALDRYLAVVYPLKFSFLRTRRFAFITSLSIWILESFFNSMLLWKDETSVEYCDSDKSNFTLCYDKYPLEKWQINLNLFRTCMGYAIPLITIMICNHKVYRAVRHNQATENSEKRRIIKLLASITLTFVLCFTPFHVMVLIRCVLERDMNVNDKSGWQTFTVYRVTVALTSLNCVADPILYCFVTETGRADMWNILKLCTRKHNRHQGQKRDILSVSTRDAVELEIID
Protocol: (§1) HeLa stable expression cell lines were produced by lentiviral transduction. Briefly, lentiviral plasmids for each GPCR with a C-terminal V5 Tag ([…]) were made in a pLX317 backbone using competent Escherichia coli (New England Biolabs, C3050H). Lenti-X 293 T (Takara, 632810) cells were transfected with the lentiviral plasmids to produce virus. Low-passage HeLa cells (American Type Culture Collection, CCL-2) were then transduced with lentivirus. After 48 hours, HeLa cells were cultured under selection with puromycin (3 μg/ml) and allowed to recover and expand before storing stocks in liquid nitrogen.
(§2) cAMP was measured in cells using the Lance Ultra cAMP Kit. HeLa cells were cultured under puromycin (3 μg/ml) selection. One day before the experiment, cells were seeded in T75 flasks and allowed to adhere overnight. On the day of the experiment, cells were washed twice with Dulbecco’s PBS and lifted using prewarmed 1× versene solution (Gibco, 15040066). Cells were counted in HBSS (Gibco, 14025092) and then resuspended in stimulation buffer prepared according to the manufacturer’s instructions and adjusted to pH 7.2 using 1 M sodium hydroxide. Cells were added to the plate at a density of 1500 cells per well in white opaque 384-well assay ready microplates containing 100 nl of 10 mM compound in DMSO. Cells were stimulated for 30 min at RT, then lysed and incubated with detection reagents for 1 hour in the dark at RT. Plates were read on BMG Labtech PHERAstar FSX (excitation, 337 nm; emission, 620 and 665 nm). Data analysis was performed using GraphPad Prism.

[1] = tested on: GFP-expressing HeLa cells; experiment: cAMP detection in HeLa expression cell line, GFP control; format: cell-based, human; conditions: Homo sapiens, HeLa; for Emax: relative to 100uM forskolin (100%) and DMSO (0%), read-out: GFP Max Activity %
Protocol: as §1, §2

hGPR65 = target: T2, hGPR65 (Homo sapiens, UniProt Q8IYL9); experiment: cAMP detection in HeLa expression cell line, hGPR65; format: cell-based; conditions: for EC50 / Emax: NA = no activity; for Emax: HeLa, relative to 100uM forskolin (100%) and DMSO (0%), read-out: hGPR Max Activity %
T2 construct: expressed in transfected cells; host or cells: HeLa (ATCC CCL-2), lentiviral transduction, pLX317
T2 sequence (Q8IYL9 whole entry): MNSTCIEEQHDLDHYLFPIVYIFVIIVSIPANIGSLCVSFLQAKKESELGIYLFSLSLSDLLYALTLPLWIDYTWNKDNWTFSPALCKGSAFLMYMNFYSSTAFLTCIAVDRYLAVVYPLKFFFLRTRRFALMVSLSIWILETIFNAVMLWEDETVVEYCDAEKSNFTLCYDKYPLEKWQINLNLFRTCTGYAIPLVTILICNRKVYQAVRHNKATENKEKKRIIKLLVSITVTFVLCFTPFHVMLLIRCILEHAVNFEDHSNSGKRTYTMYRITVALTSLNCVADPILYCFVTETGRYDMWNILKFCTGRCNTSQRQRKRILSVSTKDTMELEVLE
Protocol: as §1, §2

[2] = 1st mGPR column pair, NA = no activity, read-out: mGPR EC50
[3] = 2nd mGPR column pair, NA = no activity, read-out: mGPR EC50
[4] = 2nd mGPR column pair, NA = no activity
[5] = 1st GFP column pair, NA = no activity
[6] = 1st hGPR column pair, read-out: hGPR EC50
[7] = 2nd hGPR column pair, read-out: hGPR EC50

| Structure (SMILES) | EC50 (mGPR65; [2]) [µM] | Emax (mGPR65; NA = no activity) [%] | EC50 [1, 5] [nM] | Emax [1, 5] [%] | EC50 (hGPR65; [6]) [µM] | Emax (hGPR65; 1st hGPR column pair) [%] | further results |
| --- | --- | --- | --- | --- | --- | --- | --- |
| Cc1ccc(NC(=O)c2cnn3c(O)cc(-c4ccc(COC(C)C)cc4)nc23)cn1 [BRD5071] | 1.54 | 60.5 | 24900 | 8.1 | 0.991 | 74.2 | EC50 (mGPR65; [3]): 1.61 µM; Emax (mGPR65; [4]): 61.2%; EC50 (hGPR65; [7]): 1.89 µM; Emax (hGPR65; 2nd hGPR column pair): 60.4% |
| Cc1ccc(NC(=O)c2cnn3c(O)cc(-c4ccc(N5CCCC5)cc4)nc23)cc1 [BRD4336] | – | – | 13800 | 9.65 | 8.86 | 14.5 | – |
| Cc1ccc(NC(=O)c2cnn3c(O)cc(Cc4ccc5ccccc5c4)nc23)cc1 [BRD7330] | – | – | – | – | – | – | Emax (mGPR65; first pair): 11.6%; EC50 (mGPR65; SAR cAMP assay, first EC50/Max pair, read-out: mGPR EC50): 0.383 µM; EC50 ([1]; SAR cAMP assay, first EC50/Max pair of GFP control columns): 2320 nM; Emax ([1]; first pair): 1.96% |
| COCc1ccc(-c2cc(O)n3ncc(C(=O)Nc4ccc(NC(C)=O)cc4)c3n2)cc1 [BRD9998] | – | – | 91800 | 3.25 | 17.6 | 1.34 | – |
| O=C(O)c1cnn2c(O)cc(-c3ccc(F)cc3)nc12 [BRD7884] | – | – | 9180 | 3.25 | – | – | – |
| COCc1ccc(-c2cc(O)n3ncc(C(=O)NC4CCOCC4)c3n2)cc1 [BRD0202] | – | – | 15600 | 6.11 | – | – | – |
| O=C(O)c1cnn2c(O)cc(-c3ccccc3)nc12 [BRD3374] | – | – | 3780 | 4.66 | – | – | – |
| Cc1n[nH]c(C)c1CCc1cc(O)n2ncc(C(=O)Nc3ccc(Cl)cc3)c2n1 [BRD1303] | 15.9 | 10.7 | 38600 | 5.8 | – | – | – |
| COc1ncccc1-c1cc(O)n2ncc(C(=O)Nc3ccc(Cl)cc3)c2n1 [BRD8007] | 2.17 | 20 | 6140 | 6.72 | – | – | – |
| CCN(CC)C(=O)c1cnn2c(O)cc(-c3ccc(COC)cc3)nc12 [BRD7582] | – | – | 6330 | 10.8 | 2.64 | 4.89 | – |
| Cc1ccc(NC(=O)c2cnn3c(O)cc(-c4ccc(COC(C)C)cc4)nc23)cc1 [BRD5928] | – | 61.1 | – | – | – | 82.5 | Emax (mGPR65; [4]): 54.1%; EC50 (mGPR65; mGPR EC50 (uM), 2nd mGPR column pair, NA = no activity): 0.494 µM; EC50 (mGPR65; mGPR EC50 (uM), NA = no activity): 0.635 µM; cAMP production relative to BRD2813, mGPR65 (mGPR65; pH 7.2): substantially increasing cAMP production; Emax (hGPR65; 2nd hGPR column pair): 80%; EC50 (hGPR65; hGPR EC50 (uM)): 0.271 µM; EC50 (hGPR65; hGPR EC50): 0.629 µM; cAMP production relative to BRD2813, hGPR65 (hGPR65; pH 7.2): induced high hGPR65 activity |
| CCn1cc(Cl)c(-c2cc(O)n3ncc(C(N)=O)c3n2)n1 [BRD8068] | 16.4 | 13.4 | 52900 | 40.7 | – | – | – |
| Cc1ccc(NC(=O)c2cnn3c(O)cc(-c4ccc(C(=O)NC(C)C)cc4)nc23)cc1 [BRD5085] | 0.441 | 98.4 | – | – | 2.75 | 46.6 | EC50 (mGPR65; [3]): 4.17 µM; Emax (mGPR65; [4]): 32.7%; EC50 (hGPR65; [7]): 2.82 µM; Emax (hGPR65; 2nd hGPR column pair): 31.2% |
| Cc1ccc(NC(=O)c2cnn3c(O)cc(-c4ccc5ccccc5c4)nc23)cc1 [BRD7102] | 0.191 | 40.7 | – | – | 0.272 | 79.7 | EC50 (mGPR65; [3]): 0.269 µM; Emax (mGPR65; [4]): 35.2%; EC50 (hGPR65; [7]): 0.151 µM; Emax (hGPR65; 2nd hGPR column pair): 72.5%; potency and total cAMP production relative to BRD2813 (hGPR65; receptor not given): improved potency but had little effect on total cAMP production |
| COCc1ccc(-c2cc(O)n3ncc(C(=O)Nc4ccccc4C)c3n2)cc1 [BRD2974] | 26.4 | 8.27 | 3660 | 19.4 | – | – | – |
| Cc1ccc(NC(=O)c2cnn3c(O)cc(-c4ccc(N5CCN(C)CC5)c(Cl)c4)nc23)cc1 [BRD5068] | 0.613 | 71 | – | – | 1.76 | 53.1 | EC50 (mGPR65; [3]): 1.04 µM; Emax (mGPR65; [4]): 66.5%; EC50 (hGPR65; [7]): 2.82 µM; Emax (hGPR65; 2nd hGPR column pair): 36.9% |
| O=C(Nc1ccccc1)c1cnn2c(O)cc(COc3ccccc3)nc12 [BRD5802] | – | – | 41400 | 5.04 | 89.8 | 55.7 | – |
